Measured values reported in patent US20240317752A1, “6-SUBSTITUTED-9H-PURINE DERIVATIVES AND RELATED USES” (Black Diamond Therapeutics, Inc., priority 2021, published 2024).

Biological target: T1, BaF3 BRAF-KIAA1549 fusion cells (Homo sapiens, UniProt P15056)
T1 construct: The BRAF-KIAA1549 fusion mutant was subcloned into pMXs-IRES-Blasticidin (RTV-016, Cell Biolabs, San Diego, CA); fused on or other part: Q9HCM3 (UPF0606 protein KIAA1549)
Experiment: BaF3 BRAF-KIAA1549 fusion cell proliferation assay (CellTiterGlo)
Format: cell-based
Settings: 96 hours incubation, potency code
Experimental: Retroviral Production: The BRAF-KIAA1549 fusion mutant was subcloned into pMXs-IRES-Blasticidin (RTV-016, Cell Biolabs, San Diego, CA). Retrovirus was produced by transfection of HEK 293T cells with the retroviral BRAF mutant expression vector pMXs-IRES-Blasticidin (RTV-016, Cell Biolabs), pCMV-Gag-Pol vector and pCMV-VSV-G-Envelope vector. Briefly, HEK 293T cells were plated in Poly-D-lysine coated 6-well plate (2.5×10^5 cells per well) and incubated overnight. The next day, retroviral plasmids (1 μg of BRAF-KIAA fusion mutant, 0.32 μg of pCMV-Gag-Pol and 0.165 μg pCMV-VSV-G) were mixed in 300 μL of Optimem (31985, Life Technologies). The mixture was incubated at room temperature for 5 minutes and then added to Optimem containing transfection reagent Lipofectamine (11668, Invitrogen) and incubated for 20 minutes. The mixture was then added dropwise to HEK 293T cells. The next day the medium was replaced with fresh culture medium and retrovirus was harvested at 24 hours.
Generation of BRAF-KIAA1549 fusion stable cell line: BaF3 cells were plated in V-bottom 96 well plate (COSTAR #3894) in 80 μL of RPMI/10% FBS and 0.01 ng/ml mouse IL-3; supplemented with 8 μg/mL polybrene (4×10^4 cells/well). Cells were transduced with 20 μL of BRAF-KIAA1549 fusion viral supernatant by centrifuging for 30 minutes at 1000 rpm. Cells were placed in a 37° C. incubator overnight. Next day 100 μL of RPMI/10% FBS and 0.01 ng/ml mouse IL-3 was added. After 24 hours, 100 μL of cells were transferred to a 24 well plate containing 900 μL of RPMI/10% FBS and 15 μg/mL Blasticidin. Contents of the 24 well plate were sampled for cell viability via CellTiterGlo (Promega) over a 2-week period.
Assay for cell proliferation: BaF3 BRAF-KIAA1549 fusion cells were resuspended at 1.5×10^5c/mL in RPMI containing 10% Heat Inactivated FBS, 1% L-glutamine and dispensed in duplicate ([…]) into 384 well plates. To determine the effect of compound on cell proliferation, BaF3 BRAF-KIAA1549 fusion cells were incubated for 96 hours in the presence of vehicle control (DMSO) or compound at varying concentrations. Inhibition of cell growth was determined by luminescent quantification (Envision by Perkin Elmer) of intracellular ATP content using CellTiterGlo (Promega), according to the protocol provided by the manufacturer. To determine the IC50 values, the vehicle-treated cells were normalized as viable cells and analyzed using the CDD Vault, Collaborative Drug Discovery, Burlingame, CA (the Levenberg-Marquardt algorithm; Levenberg, K., […]; Marquardt, D., 1963).
Tables A1 and A2 assign each compound a code for potency in the BaF3 BRAF-KIAA1549 fusion cell proliferation assay: A, B, C, or D. According to the code, A represents an IC50 value <20 nM; B represents an IC50 value ≥20 nM and <100 nM; C represents an IC50 value ≥100 nM and <500 nM; and D represents an IC50 value ≥500 nM.

T1 sequence (P15056 whole entry, change not shown, the tested form may be a part): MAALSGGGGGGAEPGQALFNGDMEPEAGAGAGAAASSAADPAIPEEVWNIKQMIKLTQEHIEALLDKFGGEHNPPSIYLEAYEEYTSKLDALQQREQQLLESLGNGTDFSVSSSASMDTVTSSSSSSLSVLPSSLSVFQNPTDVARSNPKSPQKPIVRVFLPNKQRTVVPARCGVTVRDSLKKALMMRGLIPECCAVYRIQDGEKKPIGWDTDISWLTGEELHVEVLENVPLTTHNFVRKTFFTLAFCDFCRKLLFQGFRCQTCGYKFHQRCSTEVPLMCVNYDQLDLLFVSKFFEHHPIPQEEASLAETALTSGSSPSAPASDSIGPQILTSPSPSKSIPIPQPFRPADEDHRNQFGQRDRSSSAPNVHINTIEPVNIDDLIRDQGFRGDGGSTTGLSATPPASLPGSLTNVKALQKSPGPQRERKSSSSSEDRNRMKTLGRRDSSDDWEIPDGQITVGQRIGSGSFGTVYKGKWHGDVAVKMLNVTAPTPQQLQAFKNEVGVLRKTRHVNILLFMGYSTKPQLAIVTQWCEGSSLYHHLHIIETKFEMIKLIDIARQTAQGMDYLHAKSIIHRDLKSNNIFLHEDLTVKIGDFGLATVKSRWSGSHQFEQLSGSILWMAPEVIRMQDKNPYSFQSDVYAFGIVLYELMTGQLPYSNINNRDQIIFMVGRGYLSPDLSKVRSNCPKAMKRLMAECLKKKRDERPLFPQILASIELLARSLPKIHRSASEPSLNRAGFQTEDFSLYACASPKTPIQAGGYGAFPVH

GI50 [nM] | SMILES
20 to 100 | Cc1ccc(NC(=O)CC2CCOC(C(F)(F)F)C2)cc1Nc1ncccc1-c1ncnc2[nH]cnc12 (centres unmarked) [Compound I-75, N-(3-((3-(9H-purin-6-yl)pyridin-2-yl)amino)-4-methylphenyl)-2-(2-(trifluoromethyl)tetrahydro-2H-pyran-4-yl)acetamide]
< 20 | Cc1ccc(NC(=O)c2cc(C3CC3)ccn2)cc1Nc1ncccc1-c1ncnc2[nH]cnc12 [Compound I-55, N-(3-(3-(9H-purin-6-yl)pyridin-2-ylamino)-4-methylphenyl)-4-cyclopropylpicolinamide]
≥ 500 | Cc1ccc(NC(=O)CC2CCCN(C)CC2)cc1Nc1ncccc1-c1ncnc2[nH]cnc12 (centres unmarked) [IA-132, N-(3-(3-(9H-purin-6-yl)pyridin-2-ylamino)-4-methylphenyl)-2-(1-methylazepan-4-yl)acetamide]
20 to 100 | Cc1ccc(NC(=O)c2cc(C(F)F)c(C)cn2)cc1Nc1ncccc1-c1ncnc2[nH]cnc12 [IA-90, N-(3-((3-(9H-purin-6-yl)pyridin-2-yl)amino)-4-methylphenyl)-4-(difluoromethyl)-5-methylpicolinamide]
< 20 | Cc1ncc(NC(=O)c2cc(C(F)(F)F)ccn2)cc1Nc1ncccc1-c1ncnc2[nH]cnc12 [Compound I-16, N-(5-(3-(9H-purin-6-yl)pyridin-2-ylamino)-6-methylpyridin-3-yl)-4-(trifluoromethyl)picolinamide]
20 to 100 | Cc1ncc(NC(=O)c2ccnc(C(F)(F)F)c2)cc1Nc1ncccc1-c1ncnc2[nH]cnc12 [Compound I-17, N-(5-(3-(9H-purin-6-yl)pyridin-2-ylamino)-6-methylpyridin-3-yl)-2-(trifluoromethyl)isonicotinamide]
< 20 | Cc1ccc(NC(=O)c2nccc(C(F)(F)F)c2F)cc1Nc1ncccc1-c1ncnc2[nH]cnc12 [IA-116, N-(3-((3-(9H-purin-6-yl)pyridin-2-yl)amino)-4-methylphenyl)-3-fluoro-4-(trifluoromethyl)picolinamide]
100 to 500 | Cc1ccc(NC(=O)c2ccc(C#N)cc2)cc1Nc1ncccc1-c1ncnc2[nH]cnc12 [Compound I-26, N-(3-((3-(9H-purin-6-yl)pyridin-2-yl)amino)-4-methylphenyl)-4-cyanobenzamide]
20 to 100 | Cc1cnc(C(=O)Nc2ccc(C)c(Nc3ncccc3-c3ncnc4[nH]cnc34)c2)cc1C#N [Compound I-71, N-(3-((3-(9H-purin-6-yl)pyridin-2-yl)amino)-4-methylphenyl)-4-cyano-5-methylpicolinamide]
100 to 500 | Cc1ccc(NC(=O)c2cc(C(F)(F)F)c(OC3CN(C)C3)cn2)cc1Nc1ncccc1-c1ncnc2[nH]cnc12 [IA-94, N-(3-(3-(9H-purin-6-yl)pyridin-2-ylamino)-4-methylphenyl)-5-(1-methylazetidin-3-yloxy)-4-(trifluoromethyl)picolinamide]
20 to 100 | COc1nc2c(-c3cccnc3Nc3cc(NC(=O)c4cc(C(F)(F)F)ccn4)ccc3C)ncnc2[nH]1 [IA-123, N-(3-(3-(8-methoxy-9H-purin-6-yl)pyridin-2-ylamino)-4-methylphenyl)-4-(trifluoromethyl)picolinamide]
< 20 | COc1cc(C(=O)Nc2ccc(C)c(Nc3ncccc3-c3ncnc4[nH]cnc34)c2)ccc1Cl [Compound I-41, N-(3-((3-(9H-purin-6-yl)pyridin-2-yl)amino)-4-methylphenyl)-4-chloro-3-methoxybenzamide]
20 to 100 | N#Cc1cc(C(=O)Nc2ccc(F)c(Nc3ncccc3-c3ncnc4[nH]cnc34)c2)ccc1Cl [Compound I-50, N-(3-(3-(9H-purin-6-yl)pyridin-2-ylamino)-4-fluorophenyl)-4-chloro-3-cyanobenzamide]
≥ 500 | Cc1ccc(NC(=O)c2cc(C3CC3)c(Cl)cn2)cc1Nc1ncccc1-c1ncnc2[nH]cnc12 [Compound I-56, N-(3-((3-(9H-purin-6-yl)pyridin-2-yl)amino)-4-methylphenyl)-5-chloro-4-cyclopropylpicolinamide]
< 20 | Cc1ccc(NC(=O)CN2CCC[C@H](C(F)(F)F)C2)cc1Nc1ncccc1-c1ncnc2[nH]cnc12 [IA-103, (S)—N-(3-(3-(9H-purin-6-yl)pyridin-2-ylamino)-4-methylphenyl)-2-(3-(trifluoromethyl)piperidin-1-yl)acetamide]
20 to 100 | Cc1ncc(NC(=O)c2cncc(C(F)(F)F)c2)cc1Nc1ncccc1-c1ncnc2[nH]cnc12 [Compound I-18, N-(5-(3-(9H-purin-6-yl)pyridin-2-ylamino)-6-methylpyridin-3-yl)-5-(trifluoromethyl)nicotinamide]
100 to 500 | Cc1ccc(C(=O)Nc2cc(C(C)(C)C)nn2C2CC2)cc1Nc1ncccc1-c1ncnc2[nH]cnc12 [Compound I-79, 3-((3-(9H-purin-6-yl)pyridin-2-yl)amino)-N-(3-(tert-butyl)-1-cyclopropyl-1H-pyrazol-5-yl)-4-methylbenzamide]
20 to 100 | Cc1ccc(C(=O)Nc2ccc(C)c(Nc3ncccc3-c3ncnc4[nH]cnc34)c2)cc1 [Compound I-27, N-(3-((3-(9H-purin-6-yl)pyridin-2-yl)amino)-4-methylphenyl)-4-methylbenzamide]
100 to 500 | Cc1ccc(NC(=O)C[C@@H]2CCN[C@@H](C(F)(F)F)C2)cc1Nc1ncccc1-c1ncnc2[nH]cnc12 (single isomer, unassigned) [IA-144]
< 20 | Cc1ccc(NC(=O)CC2CCCCCC2)cc1Nc1ncccc1-c1ncnc2[nH]cnc12 [IA-113, N-(3-((3-(9H-purin-6-yl)pyridin-2-yl)amino)-4-methylphenyl)-2-cycloheptylacetamide]
20 to 100 | Cc1ccc(NC(=O)CC2CC(C(F)(F)F)CCO2)cc1Nc1ncccc1-c1ncnc2[nH]cnc12 (centres unmarked) [IA-105, N-(3-((3-(9H-purin-6-yl)pyridin-2-yl)amino)-4-methylphenyl)-2-(4-(trifluoromethyl)tetrahydro-2H-pyran-2-yl)acetamide]
20 to 100 | O=C(Nc1ccc(F)c(Nc2ncccc2-c2ncnc3[nH]cnc23)c1)c1cc(C(F)(F)F)ccn1 [Compound I-20]
100 to 500 | Cc1ccc(NC(=O)c2cc(C(F)(F)F)ccn2)cc1Nc1nccc(F)c1-c1ncnc2[nH]cnc12 [IA-117, N-(3-(4-fluoro-3-(9H-purin-6-yl)pyridin-2-ylamino)-4-methylphenyl)-4-(trifluoromethyl)picolinamide]
20 to 100 | Cc1c(F)cc(C(=O)Nc2cccc(C(F)(F)F)c2)cc1Nc1ncccc1-c1ncnc2[nH]cnc12 [Compound I-53, 3-((3-(9H-purin-6-yl)pyridin-2-yl)amino)-5-fluoro-4-methyl-N-(3-(trifluoromethyl)phenyl)benzamide]
≥ 500 | Cc1ccc(NC(=O)c2cc(C(F)(F)F)ccn2)cc1Nc1nnccc1-c1ncnc2[nH]cnc12 [IA-121, N-(3-((4-(9H-purin-6-yl)pyridazin-3-yl)amino)-4-methylphenyl)-4-(trifluoromethyl)picolinamide]
20 to 100 | Cc1ccc(NC(=O)c2cc(C(F)(F)F)ccn2)cc1Nc1ncc(F)cc1-c1ncnc2[nH]cnc12 [IA-118, N-(3-((5-fluoro-3-(9H-purin-6-yl)pyridin-2-yl)amino)-4-methylphenyl)-4-(trifluoromethyl)picolinamide]
< 20 | Cc1ccc(NC(=O)C[C@H]2CCC[C@@H](C(F)(F)F)C2)cc1Nc1ncccc1-c1ncnc2[nH]cnc12 (single isomer, unassigned) [IA-137]
20 to 100 | Cc1cc(C(F)(F)F)cc(C(=O)Nc2ccc(C)c(Nc3ncccc3-c3ncnc4[nH]cnc34)c2)n1 [IA-93, N-(3-((3-(9H-purin-6-yl)pyridin-2-yl)amino)-4-methylphenyl)-6-methyl-4-(trifluoromethyl)picolinamide]
≥ 500 | Cc1ccc(NC(=O)c2cc(C(F)(F)F)ccn2)cc1Nc1nccc(C)c1-c1ncnc2[nH]cnc12 [IA-152]
